Values quoted from earlier work in patent US7446204B2, “Amino substituted aryloxybenzylpiperidine derivatives” (H. Lundbeck A/S, priority 2004, dated 2008).
Read-outs that look alike come from different tables or passages of the source.

Legend:
MCH1 receptor [1] = target: T1, MCH1 receptor (Rattus norvegicus, UniProt P97639); conditions: rat forced-swim; Borowsky et al., Nature Medicine 2002
T1 construct: host or cells: living rats (endogenous receptor)

MCH1 receptor [2] = target: T1, MCH1 receptor; conditions: rat social interaction; Borowsky et al., Nature Medicine 2002
MCH1 receptor [3] = target: T2, MCH1 receptor (Cavia porcellus, UniProt H0VKT7); conditions: guinea pig maternal-separation vocalization; Borowsky et al., Nature Medicine 2002
T2 construct: host or cells: living guinea pigs (endogenous receptor)
T2 sequence (H0VKT7 1-355): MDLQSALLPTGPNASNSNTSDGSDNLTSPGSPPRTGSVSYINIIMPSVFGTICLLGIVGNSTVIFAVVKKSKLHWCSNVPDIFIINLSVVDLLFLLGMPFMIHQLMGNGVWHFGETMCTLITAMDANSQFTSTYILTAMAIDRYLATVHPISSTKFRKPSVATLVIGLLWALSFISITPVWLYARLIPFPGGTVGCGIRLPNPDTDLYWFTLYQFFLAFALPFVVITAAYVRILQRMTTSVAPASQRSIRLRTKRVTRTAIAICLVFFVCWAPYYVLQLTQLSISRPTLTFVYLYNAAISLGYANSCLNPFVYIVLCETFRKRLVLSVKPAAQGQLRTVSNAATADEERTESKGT

T1 sequence (P97639 whole entry): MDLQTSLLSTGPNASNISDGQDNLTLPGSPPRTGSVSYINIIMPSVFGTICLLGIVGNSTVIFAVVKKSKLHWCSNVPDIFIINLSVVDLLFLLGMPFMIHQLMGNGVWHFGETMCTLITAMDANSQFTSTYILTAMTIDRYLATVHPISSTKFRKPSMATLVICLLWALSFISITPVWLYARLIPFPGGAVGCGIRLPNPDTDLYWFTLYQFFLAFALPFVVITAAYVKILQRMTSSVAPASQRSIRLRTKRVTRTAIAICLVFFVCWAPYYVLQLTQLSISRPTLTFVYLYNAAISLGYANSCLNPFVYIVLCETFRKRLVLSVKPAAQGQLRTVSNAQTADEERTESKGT

## COCC1=C(C(=O)OC)[C@H](c2ccc(F)c(F)c2)N(C(=O)NCCCN2CCC(c3cccc(NC(C)=O)c3)CC2)C(=O)N1 [SNAP-7941]
MCH1 receptor [1]
  profile in behavioral model of depression and/or anxiety: profile similar to clinically used anti-depressants and anxiolytics
MCH1 receptor [2]
  profile in behavioral model of depression and/or anxiety: profile similar to clinically used anti-depressants and anxiolytics
MCH1 receptor [3]
  profile in behavioral model of depression and/or anxiety: profile similar to clinically used anti-depressants and anxiolytics
